This note sets out measurements from patent US10654818B2, “Furane derivatives as inhibitors of ATAD2” (BAYER PHARMA AKTIENGESELLSCHAFT, priority 2015, dated 2020).

For assay [1], the target named is T1, recombinant, N-terminally GST-tagged ATAD2 bromodomain amino acids 981-1108 (Homo sapiens, UniProt Q6PL18).
T1 construct: ATAD2 bromodomain amino acids 981-1108; made in house; host or cells: E. coli
T1 sequence (Q6PL18 981-1108): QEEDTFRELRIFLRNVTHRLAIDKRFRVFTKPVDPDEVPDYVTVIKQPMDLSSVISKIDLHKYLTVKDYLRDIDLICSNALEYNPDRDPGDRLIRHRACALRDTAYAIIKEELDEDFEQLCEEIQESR
Nature of the assay: TR-FRET assay: disruption of the interaction between ATAD2 and acetylated Histone H4 (Ac-H4) peptide. Particulars: inhibition of ATAD2/Ac-H4 complex formation; 10 nM ATAD2, 50 nM Ac-H4 peptide. In kind it is binding. Put shortly: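 Read-out is the 665/622 nm TR-FRET ratio after 337 nm excitation, normalized to DMSO and no-protein controls, with IC50 fitted by 4-parameter logistic. Compounds (11 concentrations, 0.1 nM-20 μM) pre-equilibrated 10 min with 10 nM ATAD2, then 1 h at 22 °C with 50 nM Ac-H4 peptide.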

A further assay deals with NCl-H526 lung cancer. Nature of the assay: Cell proliferation assay (alamarBlue), NCl-H526. Particulars: GI50 = half-maximal growth inhibition. In kind it is cell-based. As for the experimental part: (§1) The effect of ATAD2 inhibitory compounds on cancer cell proliferation might be measured as below. For example; MCF7 breast cancer cells might be seeded into 96-well microtiter plates at 2000 cells/well in 90 μl cell culture media (RPMI 1640, 10% FCS, 2 mM L-Glutamine, 10 μg/ml human Insulin, […]) and incubated for 24 h at 37° C. and 5% CO2. Note, the culturing conditions might vary from cell line to cell line depending on their standard culturing conditions. Compounds might be then delivered to the microtiter assay plates and, following a 72 h long incubation period at 37° C. and 5% CO2, the viability of the cells might be measured with addition of alamarBlue® (Invitrogen) to the medium in Victor X3 Multilabel Plate Reader (Perkin Elmer).
(§2) GI50 means half-maximal growth inhibition.

The subject of another assay is MCF7 breast cancer cells. Description: Cell proliferation assay (alamarBlue), MCF7. In kind it is cell-based. The note with it: Homo sapiens, 72 h incubation, GI50 = half-maximal growth inhibition. As for the experimental part:
as §1, §2

Consider `Cc1ccc([C@@H](C)NCc2ccc(-c3ccc(Cl)c(C(=O)N[C@@H](CO)Cc4ccc(C#N)cc4)c3)o2)cc1` [Example 4, 2-chloro-N-[(2R)-1-(4-cyanophenyl)-3-hydroxypropan-2-yl]-5-[5-({[(1R)-1-(4-methylphenyl)ethyl]amino}methyl)-2-furyl]benzamide], for which the half-maximal inhibitory concentration (IC50) in assay [1] is 0.393 µM. For the same molecule, the GI50 is 15.4 µM with NCl-H526 lung cancer and 11.5 µM in the assay with MCF7 breast cancer cells.

With `Cc1ccc([C@@H](C)NCc2ccc(-c3ccc(Cl)c(C(=O)N[C@@H](CCN4CC5(CN(C)C5)C4)Cc4ccc(C#N)cc4)c3)o2)cc1` [Example 36, 2-chloro-N-[(2R)-1-(4-cyanophenyl)-4-(6-methyl-2,6-diazaspiro[3.3]hept-2-yl)butan-2-yl]-5-[5-({[(1R)-1-(4-methylphenyl)ethyl]amino}methyl)-2-furyl]benzamide], the half-maximal inhibitory concentration (IC50) in assay [1] was found to be 0.186 µM. Further, the figures for the GI50 in the assay on NCl-H526 lung cancer and in the assay with MCF7 breast cancer cells were 1.29 µM and 1.28 µM, respectively.

As to `Cc1ccc([C@@H](C)NCc2ccc(-c3ccc(Cl)c(C(=O)N[C@@H](CCNCC4CCN(C)CC4)Cc4ccc(C#N)cc4)c3)o2)cc1` [Example 33, 2-chloro-N-[(2R)-1-(4-cyanophenyl)-4-{[(1-methylpiperidin-4-yl)methyl]amino}butan-2-yl]-5-[5-({[(1R)-1-(4-methylphenyl)ethyl]amino}methyl)-2-furyl]benzamide], the half-maximal inhibitory concentration (IC50) in assay [1] was 0.184 µM. Also, the GI50 in the assay on NCl-H526 lung cancer worked out at 1.25 µM; with MCF7 breast cancer cells, 1.42 µM.

In the case of `Cc1ccc([C@@H](C)NCc2ccc(-c3ccc(Cl)c(C(=O)N[C@@H](CN)Cc4ccc(C#N)cc4)c3)o2)cc1` [Example 53, N-[(2R)-1-amino-3-(4-cyanophenyl)propan-2-yl]-2-chloro-5-[5-({[(1R)-1-(4-methylphenyl)ethyl]amino}methyl)-2-furyl]benzamide], the IC50 in assay [1] came to 0.273 µM. Moreover, the concentration for 50% growth inhibition (GI50) in the assay on NCl-H526 lung cancer is 3.6 µM; in the assay with MCF7 breast cancer cells, 2.51 µM.

`Cc1ccc([C@@H](C)NCc2ccc(-c3ccc(Cl)c(C(=O)N[C@@H](CN[C@H]4CC[C@@H](N)CC4)Cc4ccc(C#N)cc4)c3)o2)cc1` (single isomer, unassigned) [Example 71]: the IC50 in assay [1] is 0.107 µM. The figures for the GI50 in the assay with NCl-H526 lung cancer and with MCF7 breast cancer cells were 1.25 µM and 3.18 µM, respectively.

Consider `Cc1ccc([C@@H](C)NCc2ccc(-c3ccc(Cl)c(C(=O)N[C@@H](CNC[C@@H]4[C@H]5CNC[C@@H]45)Cc4ccc(C#N)cc4)c3)o2)cc1` [Example 66, N-[(2R)-1-{[(1R,5S,6r)-3-azabicyclo[3.1.0]hex-6-ylmethyl]amino}-3-(4-cyanophenyl)propan-2-yl]-2-chloro-5-[5-({[(1R)-1-(4-methylphenyl)ethyl]amino}methyl)-2-furyl]benzamide], for which the 50% inhibitory concentration (IC50) in assay [1] was found to be 0.245 µM. Besides, the figures for the GI50 with NCl-H526 lung cancer and with MCF7 breast cancer cells were 5.1 µM and 3.76 µM, respectively.

On to `COc1cc(Cl)c(C(=O)N[C@@H](CN[C@H]2CC[C@@H](N)CC2)Cc2ccc(C#N)cc2)cc1-c1ccc(CN[C@H](C)c2ccc(C)cc2)o1` [Example 86, N-[(2R)-1-[(4-aminocyclohexyl)amino]-3-(4-cyanophenyl)propan-2-yl]-2-chloro-4-methoxy-5-[5-({[(1R)-1-(4-methylphenyl)ethyl]amino}methyl)-2-furyl]benzamide], for which the IC50 in assay [1] was 0.166 µM. Further, the GI50 in the assay on NCl-H526 lung cancer came to 2.4 µM; with MCF7 breast cancer cells, 3.2 µM.

For the molecule `COc1cc(Cl)c(C(=O)N[C@@H](CO)Cc2ccc(C#N)cc2)cc1-c1ccc(CN[C@H](C)c2ccc(C)cc2)o1` [Example 81, 2-chloro-N-[(2R)-1-(4-cyanophenyl)-3-hydroxypropan-2-yl]-4-methoxy-5-[5-({[(1R)-1-(4-methylphenyl)ethyl]amino}methyl)-2-furyl]benzamide], in assay [1], the 50% inhibitory concentration (IC50) turned out to be 0.301 µM. For the same molecule, the GI50 with NCl-H526 lung cancer is 10.2 µM; in the assay on MCF7 breast cancer cells, 10.4 µM.

Turning to `Cc1ccc([C@@H](C)NCc2ccc(-c3cc(C(=O)N[C@@H](CO)Cc4ccc(C#N)cc4)c(Cl)cc3O)o2)cc1` [Example 90, 2-chloro-N-[(2R)-1-(4-cyanophenyl)-3-hydroxypropan-2-yl]-4-hydroxy-5-[5-({[(1R)-1-(4-methylphenyl)ethyl]amino}methyl)-2-furyl]benzamide], in assay [1], the concentration for half-maximal inhibition (IC50) turned out to be 0.367 µM. Moreover, the GI50 in the assay with NCl-H526 lung cancer worked out at 19.1 µM; in the assay with MCF7 breast cancer cells, 10.8 µM.

As for `Cc1ccc([C@@H](C)NCc2ccc(-c3ccc(Cl)c(C(=O)N[C@@H](CCO)Cc4ccc(C#N)cc4)c3)o2)cc1` [Example 13, 2-chloro-N-[(2R)-1-(4-cyanophenyl)-4-hydroxybutan-2-yl]-5-[5-({[(1R)-1-(4-methylphenyl)ethyl]amino}methyl)-2-furyl]benzamide], the concentration for half-maximal inhibition (IC50) in assay [1] turned out to be 0.386 µM.

As for `COC(=O)c1ccc(C[C@H](CO)NC(=O)c2cc(-c3ccc(CN[C@H](C)c4ccc(C)cc4)o3)ccc2Cl)cc1` [Example 51, methyl 4-[(2R)-2-({2-chloro-5-[5-({[(1R)-1-(4-methylphenyl)ethyl]amino}methyl)-2-furyl]benzoyl}amino)-3-hydroxypropyl]benzoate], the IC50 in assay [1] is 0.81 µM.

Regarding `Cc1ccc([C@@H](C)NCc2ccc(-c3cc(C(=O)N[C@@H](CO)Cc4ccc(C#N)cc4)ccc3C#N)o2)cc1` [Example 79, 4-cyano-N-[(2R)-1-(4-cyanophenyl)-3-hydroxypropan-2-yl]-3-[5-({[(1R)-1-(4-methylphenyl)ethyl]amino}methyl)-2-furyl]benzamide], the half-maximal inhibitory concentration (IC50) in assay [1] was 1.4 µM.

For the molecule `COC[C@@H](Cc1ccc(C#N)cc1)NC(=O)c1cc(-c2ccc(CN[C@H](C)c3ccc(C)cc3)o2)ccc1Cl` [Example 14, 2-chloro-N-[(2R)-1-(4-cyanophenyl)-3-methoxypropan-2-yl]-5-[5-({[(1R)-1-(4-methylphenyl)ethyl]amino}methyl)-2-furyl]benzamide], the IC50 in assay [1] was 0.891 µM.

`Cc1ccc([C@@H](C)NCc2ccc(-c3ccc(Cl)c(C(=O)N[C@H](Cc4ccc(C#N)cc4)CN(C)C)c3)o2)cc1` [Example 24, 2-chloro-N-[(2R)-1-(4-cyanophenyl)-3-(dimethylamino)propan-2-yl]-5-[5-({[(1R)-1-(4-methylphenyl)ethyl]amino}methyl)-2-furyl]benzamide]: the IC50 in assay [1] was 0.598 µM.

Consider `Cc1ccc([C@@H](C)NCc2ccc(-c3ccc(Cl)c(C(=O)N[C@@H](CCNC(C)C)Cc4ccc(C#N)cc4)c3)o2)cc1` [Example 26, 2-chloro-N-[(2R)-1-(4-cyanophenyl)-4-(isopropylamino)butan-2-yl]-5-[5-({[(1R)-1-(4-methylphenyl)ethyl]amino}methyl)-2-furyl]benzamide], for which the concentration for half-maximal inhibition (IC50) in assay [1] was determined as 0.331 µM.

Regarding `Cc1ccc([C@@H](C)NCc2ccc(-c3ccc(Cl)c(C(=O)N[C@@H](CNS(C)(=O)=O)Cc4ccc(C#N)cc4)c3)o2)cc1` [Example 54, 2-chloro-N-{(2R)-1-(4-cyanophenyl)-3-[(methylsulfonyl)amino]propan-2-yl}-5-[5-({[(1R)-1-(4-methylphenyl)ethyl]amino}methyl)-2-furyl]benzamide], the IC50 in assay [1] was 0.705 µM.

Regarding `Cc1ccc([C@@H](C)NCc2ccc(-c3ccc(Cl)c(C(=O)N[C@H](Cc4ccc(C#N)cc4)C(C)(C)O)c3)o2)cc1` [Example 12, 2-chloro-N-[(2R)-1-(4-cyanophenyl)-3-hydroxy-3-methylbutan-2-yl]-5-[5-({[(1R)-1-(4-methylphenyl)ethyl]amino}methyl)-2-furyl]benzamide], the IC50 in assay [1] is 0.668 µM.

`COc1cc(C)c(C(=O)N[C@@H](CO)Cc2ccc(C#N)cc2)cc1-c1ccc(CN[C@H](C)c2ccc(C)cc2)o1` [Example 80, N-[(2R)-1-(4-cyanophenyl)-3-hydroxypropan-2-yl]-4-methoxy-2-methyl-5-[5-({[(1R)-1-(4-methylphenyl)ethyl]amino}methyl)-2-furyl]benzamide]: in assay [1], the half-maximal inhibitory concentration (IC50) was found to be 0.407 µM.

`Cc1ccc([C@@H](C)NCc2ccc(-c3ccc(Cl)c(C(=O)N[C@H](Cc4ccc(C#N)cc4)C(=O)NC4CCN(C)CC4)c3)o2)cc1` [Example 30, Nα-{2-chloro-5-[5-({[(1R)-1-(4-methylphenyl)ethyl]amino}methyl)-2-furyl]benzoyl}-4-cyano-N-(1-methylpiperidin-4-yl)-D-phenylalaninamide]: the IC50 in assay [1] came out at 0.253 µM.

Regarding `Cc1ccc([C@@H](C)NCc2ccc(-c3ccc(Cl)c(C(=O)N[C@@H](CC(=O)N(C)C)Cc4ccc(C#N)cc4)c3)o2)cc1` [Example 1, 2-Chloro-N-[(2R)-1-(4-cyanophenyl)-4-(dimethylamino)-4-oxobutan-2-yl]-5-[5-({[(1R)-1-(4-methylphenyl)ethyl]amino}methyl)furan-2-yl]benzamide], the IC50 in assay [1] was 0.74 µM.

Regarding `Cc1ccc([C@@H](C)NCc2ccc(-c3cc(C(=O)N[C@@H](CO)Cc4ccc(C#N)cc4)c(Cl)cc3Cl)o2)cc1` [Example 78, 2,4-dichloro-N-[(2R)-1-(4-cyanophenyl)-3-hydroxypropan-2-yl]-5-[5-({[(1R)-1-(4-methylphenyl)ethyl]amino}methyl)-2-furyl]benzamide], the IC50 in assay [1] is 1.23 µM.
